Assay results taken from patent US12686657B2, “Anti-inflammatory carboxamide derivatives” (BIOMEDCODE HELLAS SA, priority 2021, dated 2026).
Where two headings read alike, the source gives them in different places.

How the values were obtained:
Format in all cases: cell-based, mice
[1] = tested on: hTNF-activated wt SFs; assay: CCL5 and CCL20 ELISA on hTNF-activated wild type synovial fibroblasts; details: for activity at 10 µM / activity at 50 µM / IC50 / activity at 25 µM: Mus musculus, Fibroblast; for activity at 10 µM / activity at 50 µM / activity at 25 µM / CCL5 WT, percentage of level in untreated cells / CCL20 WT, percentage of level in untreated cells: 48 h; for activity at 50 µM: compound 50 μM; for IC50: 10 ng/ml hTNF stimulation
Description: (§1) Primary SFs were derived from a) human TNF transgenic (hTNFTg) mice (Keffer et al., 1991) as well as from b) CBA/C57BL6 wild type mice.
By testing the compounds in a) and b) we accessed their effect on the activated SFs phenotype caused by both the endogenous hTNF upregulation and the exogenous hTNF administration. In this way it was confirm the ability of the compounds of the invention to act in the TNF pathway directly downstream of TNF.
(§2) SFs were isolated as previously described by Armaka et al., 2009, from the ankle joints of hTNFtg or CBA/C57BL6 wild type (wt) littermates. Briefly, ankle joints were digested with Collagenase IV (Sigma Aldrich, C5138) for 45 minutes at a 37° C. shaking waterbath and after 5 days in culture at 37° C. and 5% CO2, a depletion of CD45+ lineage cells was performed using a Biotin anti-mouse CD45 Antibody (Biolegend, 103104) and Dynabeads™ Biotin Binder (ThermoFisher 11047), according to the manufacturer's protocol. After 10 days in culture, SFs were seeded overnight (O/N) at a concentration of 2×10^4 cells/well in a 96 well plate in 1×DMEM, supplemented with 100 U/ml Penicillin Streptomycin (P/S) and 10% Fetal Bovine Serum (FBS). The next day the cells were synchronized by starvation that included their O/N plating in low serum medium (0.5% FBS). Following the O/N starvation, the hTNFg and the WT SFs were treated with different concentrations of the experimental compounds. The SFs were at the same time activated with 10 ng/ml hTNF (Peprotech, 300-01A). 48 h following the treatment the cell culture supernatants were collected and analyzed by ELISA (R&S Systems, Duoset, DY478 and DY760) according to the manufacturer's protocol, for the detection of CCL5/Rantes and CCL20/Mip3, two known inflammatory chemokines. The IC50 values were determined as the concentration of the compounds required to reduce the levels of secreted CCL5 and CCL20 by 50%.
In order to determine the efficiency of the compounds of the invention, the same protocol was repeated with some minor modifications. Mainly, the concentration of hTNF was 10-fold reduced, i.e., adjusted to 1 ng/ml, and the SFs were seeded overnight at a concentration of 10^4 cells/well.
(§3) Table 7 summarizes the reduction of CCL5 and CCL20 levels achieved with the test compounds of the invention. Data are presented as percentages of the chemokine levels detected in treated cells compared to 100% levels of the chemokines detected in the untreated cells.
(§4) Table 8 summarizes the values of IC50 and toxicity for the test compounds of the invention. Dose response curves regarding the WT SFs were produced with 10 ng/ml hTNF stimulation for all compounds, with the exception of the compounds E and F, where WT cells were induced using hTNF at 1 ng/ml: […]

[2] = tested on: SFs and PMCs; assay: Compound cytotoxicity, Crystal Violet assay
Experimental: The toxicity of the test compounds was assessed at several concentrations using the Crystal Violet assay on both SFs and PMCs. Adherent viable cells were Methanol fixed and stained with Crystal Violet. Optical density was quantified at […], as described in Feoktistova et al., 2016.

[3] = tested on: hTNFtg SFs; assay: CCL5 and CCL20 ELISA on hTNFtg synovial fibroblasts; details: Mus musculus, Fibroblast; for activity at 10 µM: compound 10 μM; for activity at 10 µM / activity at 50 µM / activity at 25 µM: 48 h; for activity at 50 µM: compound 50 μM; for activity at 25 µM: compound 25 μM
Experimental: as §1
hTNFtg mice overexpress human TNF, resulting in the spontaneous development of arthritis.
as §2, §3, §4

[4] = 10 ng/mL hTNF, compound 10 μM, read-out: CCL5 WT, percentage of level in untreated cells
[5] = 10 ng/mL hTNF, compound 10 μM, read-out: CCL20 WT, percentage of level in untreated cells
[6] = read-out: CCL5 hTNFtg, percentage of level in untreated cells
[7] = read-out: CCL20 hTNFtg, percentage of level in untreated cells
[8] = read-out: IC50 (μM) CCL5 hTNFtg
[9] = read-out: IC50 (μM) CCL20 hTNFtg

SMILES	activity at 10 µM [1, 4] [%]	activity at 10 µM [1, 5] [%]	IC50 ([1]; read-out: IC50 (μM) CCL5 WT) [µM]	IC50 ([1]; read-out: IC50 (μM) CCL20 WT) [µM]	Cell Toxicity [2] [µM]	activity at 10 µM [3, 6] [%]	activity at 10 µM [3, 7] [%]	IC50 [3, 8] [µM]	IC50 [3, 9] [µM]	activity at 25 µM [3, 6] [%]	activity at 25 µM [3, 7] [%]	other results
COc1cc(N)c(Cl)cc1C(=O)NCC1(N2CCSCC2)CCCCCC1 [Compound 44, 4-amino-5-chloro-2-methoxy-N-((1-thiomorpholinocycloheptyl)methyl)benzamide]	30	75	3.7	~65	>100	69	45	12.6	~15			activity at 50 µM ([1]; 10 ng/mL hTNF, read-out: CCL5 WT, percentage of level in untreated cells): 2%; activity at 50 µM ([1]; 10 ng/mL hTNF, read-out: CCL20 WT, percentage of level in untreated cells): 46%; activity at 50 µM [3, 6]: 26%; activity at 50 µM [3, 7]: 27%
COc1cc(N)c(Cl)cc1C(=O)NCC1(c2ccc(F)cc2)CCCCCC1 [Compound 57, 4-amino-5-chloro-N-((1-(4-fluorophenyl)cycloheptyl)methyl)-2-methoxybenzamide]	49	13	18	3.5	>25	40	27	4	2.4	40	25	activity at 25 µM ([1]; 10 ng/mL hTNF, compound 25 μM, read-out: CCL5 WT, percentage of level in untreated cells): 14%; activity at 25 µM ([1]; 10 ng/mL hTNF, compound 25 μM, read-out: CCL20 WT, percentage of level in untreated cells): 6%
COc1cc(N)c(Cl)cc1C(=O)NCC1(c2ccc(F)cc2Cl)CCCCCC1 [Compound 58, 4-amino-5-chloro-N-((1-(2-chloro-4-fluorophenyl)cycloheptyl)methyl)-2-methoxybenzamide]		48.5	2.96	2.44	>50	64	32.5	0.95	0.74	53.5	22.5	CCL5 WT, percentage of level in untreated cells ([1]; 1 ng/mL hTNF, compound 10 μM): 8%; CCL5 WT, percentage of level in untreated cells ([1]; 1 ng/mL hTNF, compound 25 μM): 9%; CCL20 WT, percentage of level in untreated cells ([1]; 1 ng/mL hTNF, compound 25 μM): 14%; CCL5 WT, percentage of level in untreated cells ([1]; 10 ng/mL hTNF, compound 10 μM): 0%; CCL5 WT, percentage of level in untreated cells ([1]; 10 ng/mL hTNF, compound 25 μM): 0%; CCL20 WT, percentage of level in untreated cells ([1]; 10 ng/mL hTNF, compound 25 μM): 0%; activity at 10 µM ([1]; 1 ng/mL hTNF, compound 10 μM, read-out: CCL20 WT, percentage of level in untreated cells): 15%
